Reference: patent publication US20190071670A1, “Methods Of Treatment For Alpha-1 Antitrypsin Deficiency” (Arrowhead Pharmaceuticals, Inc., priority 2016, published 2019)
Read-outs that look alike come from different tables or passages of the source.

Key:
Z-hAAT = experiment: Semi-quantitative Western blot of soluble (monomer) and insoluble (polymer) Z-hAAT in PiZ mouse liver; format: in vivo, human (expressed in PiZ mice); details: PiZ mice liver; four biweekly IV doses 8 mg/kg with 8 mg/kg MLP delivery polymer for 8 weeks
AAT = details: cynomolgus macaque
Experimental: MLP delivery polymer and Duplex Pair SEQ ID NO: 5/6 (AAT RNAi agent) were made and combined in a pharmaceutically acceptable buffer. On day 1, cynomolgus macaque (Macaca fascicularis) primates (male and female, 3 to 9 kg) were co-injected with MLP delivery polymer and Duplex Pair SEQ ID NO: 5/6 at different dose combinations. The dose combinations injected were: 2.0 mg/kg MLP delivery polymer+4.0 AAT RNAi agent (n=3), 3 mg/kg MLP delivery polymer+1.5 mg/kg AAT RNAi agent (n=2), 3.0 mg/kg MLP delivery polymer+3.0 mg/kg AAT RNAi agent (n=3), 3.0 mg/kg MLP delivery polymer+6.0 mg/kg AAT RNAi agent (n=2), 6.0 mg/kg MLP delivery polymer+12 mg/kg AAT RNAi trigger (n=3) ([…] conversion factor used to determine RNAi agent concentration) and 12 mg/kg MLP delivery polymer+6.0 mg/kg AAT RNAi agent (n=12). For each injection the MLP delivery polymer+AAT RNAi agent (2 ml/kg) was injected into the saphenous vein using a 22 to 25 gauge intravenous catheter. At the indicated time points, blood samples were drawn and analyzed for AAT and toxicity markers. Blood was collected from the femoral vein and primates were fasted overnight before all blood collections. Blood tests for blood urea nitrogen (BUN), alanine transaminase (ALT), aspartate aminotransferase (AST), and creatinine were performed on an automated chemistry analyzer at Meriter laboratories or BASi. AAT levels were determined on a Cobas Integra 400 (Roche Diagnostics) according to the manufacturer's recommendations.
Cynomolgus macaque primates were given five doses of AAT RNAi trigger+MLP delivery polymer at six week intervals. Each dose contained MLP delivery polymer and Duplex Pair SEQ ID NO: 5/6 (AAT RNAi agent) at a 1:2 weight to weight ratio of the MLP to RNAi agent. The first injection was on day 1. The dose combinations injected were: 2.0 mg/kg MLP delivery polymer+4.0 AAT RNAi agent (n=2) and 3 mg/kg MLP delivery polymer+6 mg/kg AAT RNAi agent (n=2). Blood was collected at intervals throughout the study and AAT levels were measured from the serum as described.

Duplex Pair SEQ ID NO: 5/6: double-stranded AAT RNAi agent: modified antisense strand SEQ ID NO: 5 annealed to Chol-TEG sense strand SEQ ID NO: 6 (antisense TGGAACUUGGUGAUGAUAUTT; sense UAUAUAUCAUCACCAAGUUCCAT; Chol-TEG on sense strand; chemical modifications; antisense strand of dsRNA; modified_base 7 /mod_base = “2′-3′ seco corresponding nucleotide”; modified_base 2,4,6,8,10,12,14,16,18 /mod_base = “2′-deoxy-2′-fluoro corresponding nucleoside”; modified_base 3,5,9,11,13,15,17,19 /mod_base = “2′-O-methyl corresponding nucleoside”; modified_base 21 /mod_base = “5′-phosphorothioate corresponding nucleotide”; sense strand of dsRNA; modified_base 2 /mod_base = “2′-hydroxy corresponding nucleoside”; modified_base 4,6,8,10,12,14,16,18,20,22 /mod_base = “2′-deoxy-2′-fluoro corresponding nucleoside”; …)
reduction in insoluble Z-hAAT compared to saline (Z-hAAT): 79% | reduction in soluble Z-hAAT compared to saline (Z-hAAT): > 99% | Serum AAT levels measured six weeks after each treatment (AAT; 2.0 mg/kg MLP delivery polymer + 4.0 AAT RNAi agent, five doses at six week intervals): rebounded less with each additional treatment | Serum AAT reduced (AAT; 2.0 mg/kg MLP delivery polymer + 4.0 AAT RNAi agent, six week intervals, following the fourth treatment): 85% | Serum AAT reduced (AAT; 2.0 mg/kg MLP delivery polymer + 4.0 AAT RNAi agent, following the first treatment): 80% | knockdown of AAT (AAT; all dose combinations with MLP delivery polymer): Significant knockdown | Percent AAT Knockdown in NHPs (AAT; co-injection MLP 2.0 mg/kg + SEQ ID 5/6 4.0 mg/kg on day 1, Day 2): 11% | Percent AAT Knockdown in NHPs (AAT; co-injection MLP 2.0 mg/kg + SEQ ID 5/6 4.0 mg/kg on day 1, Day 3): 27% | Percent AAT Knockdown in NHPs (AAT; co-injection MLP 2.0 mg/kg + SEQ ID 5/6 4.0 mg/kg on day 1, Day 8): 63% | Percent AAT Knockdown in NHPs (AAT; co-injection MLP 2.0 mg/kg + SEQ ID 5/6 4.0 mg/kg on day 1, Day 11): 73% | Percent AAT Knockdown in NHPs (AAT; co-injection MLP 2.0 mg/kg + SEQ ID 5/6 4.0 mg/kg on day 1, Day 15): 81% | Percent AAT Knockdown in NHPs (AAT; co-injection MLP 2.0 mg/kg + SEQ ID 5/6 4.0 mg/kg on day 1, Day 22): 85% | Percent AAT Knockdown in NHPs (AAT; co-injection MLP 2.0 mg/kg + SEQ ID 5/6 4.0 mg/kg on day 1, Day 29): 80% | Percent AAT Knockdown in NHPs (AAT; co-injection MLP 2.0 mg/kg + SEQ ID 5/6 4.0 mg/kg on day 1, Pretest): 0% | Percent AAT Knockdown in NHPs (AAT; co-injection MLP 3.0 mg/kg + SEQ ID 5/6 1.5 mg/kg on day 1, Day 2): 16% | Percent AAT Knockdown in NHPs (AAT; co-injection MLP 3.0 mg/kg + SEQ ID 5/6 1.5 mg/kg on day 1, Day 3): 30% | Percent AAT Knockdown in NHPs (AAT; co-injection MLP 3.0 mg/kg + SEQ ID 5/6 1.5 mg/kg on day 1, Day 8): 59% | Percent AAT Knockdown in NHPs (AAT; co-injection MLP 3.0 mg/kg + SEQ ID 5/6 1.5 mg/kg on day 1, Day 11): 70% | Percent AAT Knockdown in NHPs (AAT; co-injection MLP 3.0 mg/kg + SEQ ID 5/6 1.5 mg/kg on day 1, Day 15): 74% | Percent AAT Knockdown in NHPs (AAT; co-injection MLP 3.0 mg/kg + SEQ ID 5/6 1.5 mg/kg on day 1, Day 22): 76% | Percent AAT Knockdown in NHPs (AAT; co-injection MLP 3.0 mg/kg + SEQ ID 5/6 1.5 mg/kg on day 1, Day 29): 74% | Percent AAT Knockdown in NHPs (AAT; co-injection MLP 3.0 mg/kg + SEQ ID 5/6 1.5 mg/kg on day 1, Day 36): 70% | Percent AAT Knockdown in NHPs (AAT; co-injection MLP 3.0 mg/kg + SEQ ID 5/6 1.5 mg/kg on day 1, Day 43): 63% | Percent AAT Knockdown in NHPs (AAT; co-injection MLP 3.0 mg/kg + SEQ ID 5/6 1.5 mg/kg on day 1, Day 50): 51% | Percent AAT Knockdown in NHPs (AAT; co-injection MLP 3.0 mg/kg + SEQ ID 5/6 1.5 mg/kg on day 1, Pretest): 0% | Percent AAT Knockdown in NHPs (AAT; co-injection MLP 3.0 mg/kg + SEQ ID 5/6 3.0 mg/kg on day 1, Day 2): 15% | Percent AAT Knockdown in NHPs (AAT; co-injection MLP 3.0 mg/kg + SEQ ID 5/6 3.0 mg/kg on day 1, Day 3): 29% | Percent AAT Knockdown in NHPs (AAT; co-injection MLP 3.0 mg/kg + SEQ ID 5/6 3.0 mg/kg on day 1, Day 8): 63% | Percent AAT Knockdown in NHPs (AAT; co-injection MLP 3.0 mg/kg + SEQ ID 5/6 3.0 mg/kg on day 1, Day 11): 74% | Percent AAT Knockdown in NHPs (AAT; co-injection MLP 3.0 mg/kg + SEQ ID 5/6 3.0 mg/kg on day 1, Day 15): 82% | Percent AAT Knockdown in NHPs (AAT; co-injection MLP 3.0 mg/kg + SEQ ID 5/6 3.0 mg/kg on day 1, Day 22): 88% | Percent AAT Knockdown in NHPs (AAT; co-injection MLP 3.0 mg/kg + SEQ ID 5/6 3.0 mg/kg on day 1, Day 29): 85% | Percent AAT Knockdown in NHPs (AAT; co-injection MLP 3.0 mg/kg + SEQ ID 5/6 3.0 mg/kg on day 1, Pretest): 0% | Percent AAT Knockdown in NHPs (AAT; co-injection MLP 3.0 mg/kg + SEQ ID 5/6 6.0 mg/kg on day 1, Day 2): 10% | Percent AAT Knockdown in NHPs (AAT; co-injection MLP 3.0 mg/kg + SEQ ID 5/6 6.0 mg/kg on day 1, Day 3): 25% | Percent AAT Knockdown in NHPs (AAT; co-injection MLP 3.0 mg/kg + SEQ ID 5/6 6.0 mg/kg on day 1, Day 8): 63% | Percent AAT Knockdown in NHPs (AAT; co-injection MLP 3.0 mg/kg + SEQ ID 5/6 6.0 mg/kg on day 1, Day 11): 74% | Percent AAT Knockdown in NHPs (AAT; co-injection MLP 3.0 mg/kg + SEQ ID 5/6 6.0 mg/kg on day 1, Day 15): 82% | Percent AAT Knockdown in NHPs (AAT; co-injection MLP 3.0 mg/kg + SEQ ID 5/6 6.0 mg/kg on day 1, Pretest): 0% | Percent AAT Knockdown in NHPs (AAT; co-injection MLP 6.0 mg/kg + SEQ ID 5/6 12.0 mg/kg on day 1, Day 2): 18% | Percent AAT Knockdown in NHPs (AAT; co-injection MLP 6.0 mg/kg + SEQ ID 5/6 12.0 mg/kg on day 1, Day 3): 30% | Percent AAT Knockdown in NHPs (AAT; co-injection MLP 6.0 mg/kg + SEQ ID 5/6 12.0 mg/kg on day 1, Day 8): 61% | Percent AAT Knockdown in NHPs (AAT; co-injection MLP 6.0 mg/kg + SEQ ID 5/6 12.0 mg/kg on day 1, Pretest): 0% | Percent AAT Knockdown in NHPs (AAT; co-injection MLP 12.0 mg/kg + SEQ ID 5/6 6.0 mg/kg on day 1, Day 2): 3% | Percent AAT Knockdown in NHPs (AAT; co-injection MLP 12.0 mg/kg + SEQ ID 5/6 6.0 mg/kg on day 1, Day 3): 19% | Percent AAT Knockdown in NHPs (AAT; co-injection MLP 12.0 mg/kg + SEQ ID 5/6 6.0 mg/kg on day 1, Day 8): 60% | Percent AAT Knockdown in NHPs (AAT; co-injection MLP 12.0 mg/kg + SEQ ID 5/6 6.0 mg/kg on day 1, Day 11): 84% | Percent AAT Knockdown in NHPs (AAT; co-injection MLP 12.0 mg/kg + SEQ ID 5/6 6.0 mg/kg on day 1, Day 15): 88% | Percent AAT Knockdown in NHPs (AAT; co-injection MLP 12.0 mg/kg + SEQ ID 5/6 6.0 mg/kg on day 1, Day 26): 91% | Percent AAT Knockdown in NHPs (AAT; co-injection MLP 12.0 mg/kg + SEQ ID 5/6 6.0 mg/kg on day 1, Day 33): 86% | Percent AAT Knockdown in NHPs (AAT; co-injection MLP 12.0 mg/kg + SEQ ID 5/6 6.0 mg/kg on day 1, Day 47): 76% | Percent AAT Knockdown in NHPs (AAT; co-injection MLP 12.0 mg/kg + SEQ ID 5/6 6.0 mg/kg on day 1, Pretest): 0% | serum AAT levels reduced (AAT; repeat dosing at six week intervals, 3 mg/kg MLP delivery polymer + 6 mg/kg, from two to thirty weeks after the first treatment): 80-90%
